Source: BindingDB's records for doi:10.7270/Q21N7ZQ4 (Johns Hopkins Ion Channel Center, 2012)

Target: T1, High affinity choline transporter 1 (Homo sapiens, UniProt Q9GZV3)
T1 sequence (Q9GZV3 whole entry): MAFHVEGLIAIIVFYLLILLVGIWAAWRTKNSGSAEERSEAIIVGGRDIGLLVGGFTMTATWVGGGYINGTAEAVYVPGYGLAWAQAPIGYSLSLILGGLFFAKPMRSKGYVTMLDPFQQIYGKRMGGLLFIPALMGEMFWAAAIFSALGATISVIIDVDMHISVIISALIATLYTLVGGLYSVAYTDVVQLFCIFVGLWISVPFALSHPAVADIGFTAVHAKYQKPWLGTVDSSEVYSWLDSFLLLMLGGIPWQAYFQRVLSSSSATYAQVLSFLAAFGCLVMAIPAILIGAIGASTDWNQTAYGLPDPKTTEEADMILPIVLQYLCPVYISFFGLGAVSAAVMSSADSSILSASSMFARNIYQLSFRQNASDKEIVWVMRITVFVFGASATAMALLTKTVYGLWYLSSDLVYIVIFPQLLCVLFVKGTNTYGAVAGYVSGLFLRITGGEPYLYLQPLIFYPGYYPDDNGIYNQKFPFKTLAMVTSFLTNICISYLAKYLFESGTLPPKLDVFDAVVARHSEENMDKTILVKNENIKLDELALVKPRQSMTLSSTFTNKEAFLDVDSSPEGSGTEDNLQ
Assay: human choline transporter potentiators, potency – cell-based, 10-point CRC, membrane potential dye, dose response (AID 602376)

Compound: CCOC(=O)c1ccc(-[n+]2c(-c3ccccc3)cc(-c3ccccc3)cc2-c2ccccc2)cc1 [MLS001242871]
- EC50: 14.1 µM

Compound: COc1cc(C2c3ccc(N)cc3OC(=N)C2C#N)cc(OC)c1OC (configuration not stated) [2,7-bis(azanyl)-4-(3,4,5-trimethoxyphenyl)-4H-chromene-3-carbonitrile]
- EC50: 13.5 µM
